Experiments:
NAMPT = NAMPT (Homo sapiens (Human), UniProt P43490); assay: Biochemical Inhibition Assay (NAMPT enzymatic reaction, NMN quantified by mass spectrometry); details: recombinant His-tagged NAMPT, 33 nM; 1 μM NAM; read-out: Biochem IC50
Protocol: Recombinant His-tagged NAMPT was produced in E. coli cells, purified over a Ni column, and further purified over a size-exclusion column by XTAL Biostructures.
The NAMPT enzymatic reactions were carried out in Buffer A (50 mM Hepes pH 7.5, 50 mM NaCl, 5 mM MgCl2, and 1 mM THP) in 96-well V-bottom plates. The compound titrations were performed in a separate dilution plate by serially diluting the compounds in DMSO to make a 100× stock. […] The compound and enzyme mix was incubated for 15 minutes at room temperature, then 10 μL of 10× substrate and co-factors in Buffer A were added to the test well to make a final concentration of 1 μM NAM, 100 μM 5-Phospho-D-ribose 1-diphosphate (PRPP), and 2.5 mM Adenosine 5′-triphosphate (ATP). The reaction was allowed to proceed for 30 minutes at room temperature, then was quenched with the addition of 11 μL of a solution of formic acid and L-Cystathionine to make a final concentration of 1% formic acid and 10 μM L-Cystathionine. Background and signal strength was determined by addition (or non-addition) of a serial dilution of NMN to a pre-quenched enzyme and cofactor mix.
A mass spectrometry-based assay was used to measure the NAMPT reaction product (NMN) and the internal control (L-Cystathionine). NMN and L-Cystathionine were detected using the services of Biocius Lifesciences with the RapidFire system. In short, the NMN and L-Cystathionine are bound to a graphitic carbon cartridge in 0.1% formic acid, eluted in 30% acetonitrile buffer, and injected into a Sciex 4000 mass spectrometer. The components of the sample were ionized with electrospray ionization and the positive ions were detected. […] The fragments are quantified and the analyzed by the following method.
First the NMN signal is normalized to the L-Cystathionine signal by dividing the NMN signal by the L-Cystathionine signal for each well. The signal from the background wells are averaged and subtracted from the test plates.
Wherein x denotes the average signal of the compound treated wells and y denotes the average signal of the DMSO treated wells.
IC50s are Determined Using Excel and this Formula.
Wherein X denotes the compound concentration 1, Y denotes the compound concentration 2, XX denotes the % inhibition at compound concentration 1 (X), and YY denotes the % inhibition at compound concentration 2 (Y).

A2780 cells = assay: In-Vitro Cell Proliferation Assay (SRB, 72 hours); type: cell-based; details: Homo sapiens, A2780, 72 h, A2780 cells, 72 hours, sulforhodamine B; read-out: A2780 IC50
Protocol: After overnight incubation at 37° C. and 5% CO2, the compound titrations were performed in a separate dilution plate by serially diluting the compounds in DMSO to make a 1000× stock. The compounds were then further diluted to 10× final concentration in culture media, whereupon 20 μL of each dilution was added to the plated cells with controls (e.g. DMSO and blank) to make a final volume of 200 μL. The final DMSO concentration in each well was 0.1%. The plates were then incubated for 72 hours at 37° C. in a 5% CO2 incubator. The number of viable cells was then assessed using sulforhodamine B (SRB) assay. Cells were fixed at 4° C. for 1 hour with the addition of 50 μL 30% trichloroacetic acid (TCA) to make a final concentration of 6% TCA. The plates were washed four times with H2O and allowed to dry for at least 1 hour, whereupon 100 μL of a 4% SRB in 1% acetic acid solution was added to each well and incubated at room temperature for at least 30 minutes. The plates were then washed three times with 1% acetic acid, dried, and treated with 100 μL of 10 mM Tris-Base solution. The plates were then read in a microplate reader at an absorbance of 570 nm. Background was generated on a separate plate with media only.
First, the signals from the background plate are averaged and then the background was subtracted from the test plates.
wherein x denotes the average signal of the compound-treated cells and y denotes the average signal of the DMSO-treated cells.
wherein X denotes the compound concentration 1, Y denotes the compound concentration 2, XX denotes the % inhibition at compound concentration 1 (X), and YY denotes the % inhibition at compound concentration 2 (Y).

Chain of NAMPT (P43490 whole entry): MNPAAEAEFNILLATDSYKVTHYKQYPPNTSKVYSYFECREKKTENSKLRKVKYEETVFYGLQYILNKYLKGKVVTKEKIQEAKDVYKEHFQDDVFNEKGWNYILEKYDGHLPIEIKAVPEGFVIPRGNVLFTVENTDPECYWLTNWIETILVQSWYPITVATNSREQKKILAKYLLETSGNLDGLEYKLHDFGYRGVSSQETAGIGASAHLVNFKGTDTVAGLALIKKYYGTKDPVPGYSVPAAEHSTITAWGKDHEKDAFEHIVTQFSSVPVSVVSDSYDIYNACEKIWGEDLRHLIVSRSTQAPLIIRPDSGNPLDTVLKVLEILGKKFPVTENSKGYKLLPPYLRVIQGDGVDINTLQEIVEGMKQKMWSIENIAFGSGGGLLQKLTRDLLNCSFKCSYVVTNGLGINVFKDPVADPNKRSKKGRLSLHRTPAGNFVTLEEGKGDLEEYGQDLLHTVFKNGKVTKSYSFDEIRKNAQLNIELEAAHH

SMILES	IC50 (NAMPT) [nM]	IC50 (A2780 cells) [nM]
CCN(CC)C(=O)c1cc(Cl)cc(S(=O)(=O)c2ccc(NC(=O)/C=C/c3cccnc3)cc2)c1 [3-chloro-N,N-diethyl-5-({4-[(2E)-3-(pyridin-3-yl)prop-2-enamido]benzene}sulfonyl)benzamide]	19.4	27.4
O=C(/C=C/c1cccnc1)Nc1ccc(S(=O)(=O)c2ccccc2OC(F)(F)F)cc1 [(2E)-3-(pyridin-3-yl)-N-(4-{[2-(trifluoromethoxy)benzene]sulfonyl}phenyl)prop-2-enamide]	3.6	15.7
O=C(/C=C/c1cccnc1)Nc1ccc(S(=O)(=O)Nc2ccccc2OC(F)(F)F)cc1 [(2E)-3-(pyridin-3-yl)-N-(4-{[2-(trifluoromethoxy)phenyl]sulfamoyl}phenyl)prop-2-enamide]	375	1270
O=C(/C=C/c1cccnc1)Nc1ccc(S(=O)(=O)c2cccc(OC(F)(F)F)c2)cc1 [(2E)-3-(pyridin-3-yl)-N-(4-{[3-(trifluoromethoxy)benzene]sulfonyl}phenyl)prop-2-enamide]	61.5	47.7
O=C(/C=C/c1cccnc1)Nc1ccc(S(=O)(=O)c2cccc(C(F)(F)F)c2)cc1 [(2E)-3-(pyridin-3-yl)-N-(4-{[3-(trifluoromethyl)benzene]sulfonyl}phenyl)prop-2-enamide]	31.9	107
O=C(/C=C/c1cccnc1)Nc1ccc(S(=O)(=O)c2ccc(OC(F)(F)F)cc2)cc1 [(2E)-3-(pyridin-3-yl)-N-(4-{[4-(trifluoromethoxy)benzene]sulfonyl}phenyl)prop-2-enamide]	167	100 to 1000
O=C(/C=C/c1cccnc1)Nc1ccc(S(=O)(=O)c2ccc(C(F)(F)F)cc2)cc1 [(2E)-3-(pyridin-3-yl)-N-(4-{[4-(trifluoromethyl)benzene]sulfonyl}phenyl)prop-2-enamide]	56.5	100 to 1000
O=C(/C=C/c1cccnc1)Nc1ccc(S(=O)(=O)c2cccnc2)cc1 [(2E)-3-(pyridin-3-yl)-N-[4-(pyridine-3-sulfonyl)phenyl]prop-2-enamide]	18.3	100 to 1000
O=C(/C=C/c1cccnc1)Nc1ccc(S(=O)(=O)c2cnc3ccccc3c2)cc1 [(2E)-3-(pyridin-3-yl)-N-[4-(quinoline-3-sulfonyl)phenyl]prop-2-enamide]	3.7	100
O=C(/C=C/c1cccnc1)Nc1ccc(S(=O)(=O)c2ccc3ncccc3c2)cc1 [(2E)-3-(pyridin-3-yl)-N-[4-(quinoline-6-sulfonyl)phenyl]prop-2-enamide]	5.4	76.2
O=C(/C=C/c1cccnc1)Nc1ccc(S(=O)(=O)c2cccc3cccnc23)cc1 [(2E)-3-(pyridin-3-yl)-N-[4-(quinoline-8-sulfonyl)phenyl]prop-2-enamide]	3.6	12.2
O=C(/C=C/c1cccnc1)Nc1ccc(S(=O)(=O)c2cncc(N3CCCC3)c2)cc1 [(2E)-3-(pyridin-3-yl)-N-{4-[5-(pyrrolidin-1-yl)pyridine-3-sulfonyl]phenyl}prop-2-enamide]	1.4	51.1
NS(=O)(=O)c1cccc(S(=O)(=O)c2ccc(NC(=O)/C=C/c3cccnc3)cc2)c1 [(2E)-3-(pyridin-3-yl)-N-{4-[(3-sulfamoylbenzene)sulfonyl]phenyl}prop-2-enamide]	9.9	100 to 1000
O=C(/C=C/c1cccnc1)Nc1ccc(S(=O)(=O)c2cccc3c2oc2ccccc23)cc1 [(2E)-N-(4-{8-oxatricyclo[7.4.0.0^2,^7]trideca-1(13),2,4,6,9,11-hexaene-6-sulfonyl}phenyl)-3-(pyridin-3-yl)prop-2-enamide]	3.5	7.3
O=C(/C=C/c1cccnc1)Nc1ccc(S(=O)(=O)c2cc(OC(F)(F)F)ccc2Cl)cc1 [(2E)-N-(4-{[2-chloro-5-(trifluoromethoxy)benzene]sulfonyl}phenyl)-3-(pyridin-3-yl)prop-2-enamide]	21	100 to 1000
COc1cc(C(F)(F)F)ccc1S(=O)(=O)c1ccc(NC(=O)/C=C/c2cccnc2)cc1 [(2E)-N-(4-{[2-methoxy-4-(trifluoromethyl)benzene]sulfonyl}phenyl)-3-(pyridin-3-yl)prop-2-enamide]	59.6	118
COc1ccc(C(C)C)cc1S(=O)(=O)c1ccc(NC(=O)/C=C/c2cccnc2)cc1 [(2E)-N-(4-{[2-methoxy-5-(propan-2-yl)benzene]sulfonyl}phenyl)-3-(pyridin-3-yl)prop-2-enamide]	2.6	16.7
COc1ccc(OC(F)(F)F)cc1S(=O)(=O)c1ccc(NC(=O)/C=C/c2cccnc2)cc1 [(2E)-N-(4-{[2-methoxy-5-(trifluoromethoxy)benzene]sulfonyl}phenyl)-3-(pyridin-3-yl)prop-2-enamide]	16.8	29.3
COc1ccc(C(F)(F)F)cc1S(=O)(=O)c1ccc(NC(=O)/C=C/c2cccnc2)cc1 [(2E)-N-(4-{[2-methoxy-5-(trifluoromethyl)benzene]sulfonyl}phenyl)-3-(pyridin-3-yl)prop-2-enamide]	24.2	19
Cc1cc(C(F)(F)F)ccc1S(=O)(=O)c1ccc(NC(=O)/C=C/c2cccnc2)cc1 [(2E)-N-(4-{[2-methyl-4-(trifluoromethyl)benzene]sulfonyl}phenyl)-3-(pyridin-3-yl)prop-2-enamide]	62.8	100 to 1000
O=C(/C=C/c1cccnc1)Nc1ccc(S(=O)(=O)c2cccc(-n3cccn3)c2)cc1 [(2E)-N-(4-{[3-(1H-pyrazol-1-yl)benzene]sulfonyl}phenyl)-3-(pyridin-3-yl)prop-2-enamide]	4.8	88
CC(C)COc1cccc(S(=O)(=O)c2ccc(NC(=O)/C=C/c3cccnc3)cc2)c1 [(2E)-N-(4-{[3-(2-methylpropoxy)benzene]sulfonyl}phenyl)-3-(pyridin-3-yl)prop-2-enamide]	56.7	100 to 1000
Cc1cc(C)n(-c2cccc(S(=O)(=O)c3ccc(NC(=O)/C=C/c4cccnc4)cc3)c2)n1 [(2E)-N-(4-{[3-(3,5-dimethyl-1H-pyrazol-1-yl)benzene]sulfonyl}phenyl)-3-(pyridin-3-yl)prop-2-enamide]	9.1	31.9
CCS(=O)(=O)c1cccc(S(=O)(=O)c2ccc(NC(=O)/C=C/c3cccnc3)cc2)c1 [(2E)-N-(4-{[3-(ethanesulfonyl)benzene]sulfonyl}phenyl)-3-(pyridin-3-yl)prop-2-enamide]	17.3	70.4
Cn1ncc2ccc(S(=O)(=O)c3ccc(NC(=O)/C=C/c4cccnc4)cc3)cc21 [(2E)-N-[4-(1-methyl-1H-indazole-6-sulfonyl)phenyl]-3-(pyridin-3-yl)prop-2-enamide]	–	53
COc1ccc2cc(S(=O)(=O)c3ccc(NC(=O)/C=C/c4cccnc4)cc3)ccc2c1 [(2E)-N-[4-(6-methoxynaphthalene-2-sulfonyl)phenyl]-3-(pyridin-3-yl)prop-2-enamide]	–	100 to 1000
Cc1ccc(S(=O)(=O)c2ccc(NC(=O)/C=C/c3cccnc3)cc2)cn1 [(2E)-N-[4-(6-methylpyridine-3-sulfonyl)phenyl]-3-(pyridin-3-yl)prop-2-enamide]	–	100 to 1000
Cc1cccc(S(=O)(=O)c2ccc(NC(=O)/C=C/c3cccnc3)cc2)c1 [(2E)-N-{4-[(3-methylbenzene)sulfonyl]phenyl}-3-(pyridin-3-yl)prop-2-enamide]	–	93.3
